Measurements as given in patent US20040185109A1, “Method for incorporating cationic molecules into a substrate for increasing dispersibility of cationic molecules” (priority 2002, published 2004).

Test: Determination of useful cationic compounds: dye mixed with organoclay, clean clay, quat or alone in water, centrifuged, examined visually
Type: physicochemical
Details: for Ionic character (cationic or anionic) concluded from the visual results: conclusion from Test Tubes 1-4
Excerpt: At the outset of the method of the present invention, it must first be determined if a particular compound or molecule will be able to undergo the method of enhancing its dispersibility and thereby its cationic properties as disclosed herein. Thus, a determination must be made (for example, if the ionic character of a certain compound is unknown) whether or not the ion or molecule comprises an cationic portion that will ion exchange onto the surface of a substrate such as a clay or an organoclay. Thus, the molecule or ion can be tested in order to determine whether it has a cationic character (and thus can undergo the present method) or an anionic character or a neutral character. In testing certain molecules or ions, the procedure described below was employed.
Using Jarocol Straw Yellow dye as a representative example, four 1 mg samples of the dye were weighed and placed in 4 test tubes.
Subsequently, 10 mL of water were added to each of the four test tubes, and all of the samples were mixed well for 30 seconds. The samples from each of the test tubes were then centrifuged for 15 minutes in a laboratory scale centrifuge.
Next, the resulting centrifuged samples were examined and analyzed (by being compared to the control sample) to determine whether the Jarocol Straw Yellow dye reacted with the organoclay, the clean clay, or the quat, so that it could then be decided if Jarocol Straw Yellow dye has the requisite cationic character to ion exchange onto the surface of a clay and thereby have increased dispersibility in various application systems.
The analysis herein was performed visually, since the six samples tested were dyes. However, non-dye samples may be analyzed through infrared spectroscopy, differential scanning calorimetry (DSC), gas chromatography, UV spectroscopy, thermogravimetric analysis, or the like. For example, for a non-dye sample, the clay may be separated from the water, both parts may be taken to dryness, and the IR spectrum of each may be recorded.
Just as Jarocol Straw Yellow dye was tested using the four test tubes, the other five dye samples were similarly tested.

Row | Ionic character (cationic or anionic) concluded from the visual results | Test Tube 4 (Control, sample only) visual result (1 mg dye only, 10 mL water, mixed 30 seconds, centrifuged 15 minutes) | Compound | Test Tube 3 (10 mg Quat) visual result (1 mg dye + 10 mg quat, 10 mL water, mixed 30 seconds, centrifuged 15 minutes)
1 | exhibit anionic character to some extent | – | O=C([O-])c1ccccc1-c1c2cc(Br)c(=O)c(Br)c-2oc2c(Br)c([O-])c(Br)cc12.[Na+].[Na+] [D&C Red No. 22 dye] | –
2 | exhibit anionic character to some extent | – | CCN(Cc1cccc(S(=O)(=O)[O-])c1)c1ccc(C(=C2C=CC(=[N+](CC)Cc3cccc(S(=O)(=O)[O-])c3)C=C2)c2ccccc2S(=O)(=O)[O-])cc1.[Na+].[Na+] [FD&C Blue No. 1 dye] | –
3 | exhibit anionic character to some extent | – | O=C([O-])C1=NN(c2ccc(S(=O)(=O)[O-])cc2)C(=O)C1N=Nc1ccc(S(=O)(=O)[O-])cc1.[Na+].[Na+].[Na+] (stereo not shown) [FD&C Yellow No. 5 dye] | –
4 | anionic in nature | Water was red | Cc1ccc(N=Nc2c([O-])c(C(=O)O)cc3ccccc23)c(S(=O)(=O)[O-])c1.[Na+].[Na+] [Lithol Rubine B] | formed a highly insoluble reaction product with the quat
5 | have the requisite cationic character | – | CN(C)c1ccc2nc3ccc(=[N+](C)C)cc-3sc2c1 [Methylene Blue, laboratory reagent dye, methylene blue] | –
